# In publication PMC6689897, “Drugging an undruggable pocket on KRAS” (Proceedings of the National Academy of Sciences of the …, 2019):
# Biological target: KRAS (Homo sapiens, UniProt P01116, G12D)
# Experiment: Alpha Screen PPI assays, summary over KRAS interactions (SOS1, CRAF, PI3Kα)
# Format: biochemical
# Conditions: interaction not given
# Text: Using biochemical assays, we investigated whether 1 inhibited 3 of the 4 PPIs important for KRAS cycling (Fig. 5 A, i–iii). Namely, 1) GDP-KRAS interaction with the catalytic site of SOS ([33]), 2) GTP-KRAS interaction with the allosteric site of SOS ([34]), and 3) GTP-KRAS interaction with downstream effectors (CRAF and PI3Kα). We were unable to establish a biochemical assay for the fourth intervention point, namely, 4) GTP-KRAS interaction with its GAPs (Fig. 5 A, iv). As a reference compound for these assays, we used the KRAS^G12C-specific covalent inhibitor ARS-1620 ([35]). Compound 1 inhibited all 3 RAS cycle intervention points (1 to 3) in a dose-dependent manner (Fig. 5 B–E) in the range of 100 to 770 nM (SI Appendix, Table S6).
# 217 The coordinates and structure factors of the structures have been deposited at the
# 218 Protein Data Bank with the accession codes PDB Code 6GJ5, 6GJ6, 6GJ7, 6GJ8.
# 221 Measurements of various protein–protein interactions were performed using the Alpha
# 222 Screen technology developed by Perkin Elmer. Recombinant RAS proteins (H-, N-, K-
# 223 RAS variants; all KRAS variants are based on KRAS isoform 4B (uniprot id P01116-2);
# 224 KRAS (G12D) 1-169, N-terminal 6His-tag, C-terminal avi-tag was from Xtal
# 225 BioStructures, Inc., KRAS (G12C) 1-169, C-terminal avi-tag, biotinylated, mutations:
# 226 C51S, C80L, C118S, NRAS(wt) 1-172, C-terminal avi-tag, biotinylated; HRAS(wt) 1-
# 227 166, C-terminal avi-tag, biotinylated). Biotinylation was performed in vitro with
# 228 recombinant BirA biotin-protein ligase as recommended by the manufacturer (Avidity
# 229 LLC, Aurora, Colorado, USA). Interacting proteins such as SOS1 (564-1049, N-terminal
# 230 GST-tag, TEV cleavage site), cRaf (1-303, N-terminal GST-tag, TEV cleavage site) and
# 231 PI3KA- RBD (160-317, N-term-HIS_GST-tag) were expressed as glutathione S […]
# 245 for 60 min in the dark at room temperature. Single oxygen induced fluorescence was
# 246 measured at an Enspire multimode plate reader (Perkin Elmer) according to the
# 247 manufacturer’s recommendations. Data were analyzed using the GraphPad Prism data […]
# Chain of KRAS (P01116 1-169 G12D): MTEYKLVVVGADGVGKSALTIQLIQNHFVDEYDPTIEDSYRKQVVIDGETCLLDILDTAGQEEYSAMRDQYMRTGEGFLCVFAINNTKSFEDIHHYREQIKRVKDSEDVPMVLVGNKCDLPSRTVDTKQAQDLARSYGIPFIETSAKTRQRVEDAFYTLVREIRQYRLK
structure (smiles),measurement,value
Cn1cnc(Cn2ccc3ccc(CNCc4[nH]c5ccccc5c4[C@H]4NC(=O)c5ccc(O)cc54)cc32)c1 [Compound 1],IC50,450 nM
